Experimental findings from US8227422B2, “Peptides and compounds that bind to a receptor” (Glaxosmithkline LLC, priority 1996, dated 2012) are described below.

Like-named read-outs stand apart in the source and are kept apart here. Where a SMILES comes first, the peptide text is derived from it.

Test [1] concerns the target T1, human TPO-R (transfected Ba/F3 cells) (Homo sapiens, UniProt P40238).
T1 construct: Murine IL-3 dependent Ba/F3 cells were transfected with full length human TPO-R; expressed in transfected cells; host or cells: murine Ba/F3 cells
T1 sequence (P40238 26-635): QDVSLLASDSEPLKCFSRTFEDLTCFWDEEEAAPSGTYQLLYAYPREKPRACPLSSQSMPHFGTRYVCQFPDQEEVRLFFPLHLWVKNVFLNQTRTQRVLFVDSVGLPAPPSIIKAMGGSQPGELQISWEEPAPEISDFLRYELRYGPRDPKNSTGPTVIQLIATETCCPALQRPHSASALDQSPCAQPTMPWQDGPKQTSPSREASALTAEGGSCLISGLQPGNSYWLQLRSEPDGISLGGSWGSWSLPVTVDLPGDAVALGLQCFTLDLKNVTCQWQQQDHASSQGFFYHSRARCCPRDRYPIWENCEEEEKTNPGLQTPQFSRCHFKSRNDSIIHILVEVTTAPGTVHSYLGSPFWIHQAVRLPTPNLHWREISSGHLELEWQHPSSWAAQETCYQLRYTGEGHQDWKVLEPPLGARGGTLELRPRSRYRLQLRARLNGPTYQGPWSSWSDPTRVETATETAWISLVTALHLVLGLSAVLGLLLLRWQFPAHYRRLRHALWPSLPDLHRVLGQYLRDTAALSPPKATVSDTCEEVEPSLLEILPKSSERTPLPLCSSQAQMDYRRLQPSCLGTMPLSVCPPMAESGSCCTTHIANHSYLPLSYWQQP
The experiment in a line: Thrombopoietin dependent cell proliferation assay (MTT), TPO-R transfected Ba/F3 cells. Type of test: cell-based.

The target in test [2] is T2, TPO receptor (Homo sapiens, UniProt P40238).
T2 sequence (P40238 26-635): T1 sequence (P40238 26-635)
The experiment in a line: Microphysiometer assay: rate of acidification of extracellular medium on TPO receptor stimulation. In kind it is cell-based. To be noted: Table 4, cyclized compounds; microphysiometer; read-out: EC50 (nM) Microonys.
Protocol: In this example cyclized compounds were subjected to three assays. […] Finally, a microphysiometer (Molecular Devices Corp.) assay was performed. […] The ranges for EC50 are symbolically indicated as for IC50 described above.

The target in test [3] is T3, TPO-R (Homo sapiens, UniProt P40238).
T3 construct: made in house
T3 sequence (P40238 26-491 limits assumed): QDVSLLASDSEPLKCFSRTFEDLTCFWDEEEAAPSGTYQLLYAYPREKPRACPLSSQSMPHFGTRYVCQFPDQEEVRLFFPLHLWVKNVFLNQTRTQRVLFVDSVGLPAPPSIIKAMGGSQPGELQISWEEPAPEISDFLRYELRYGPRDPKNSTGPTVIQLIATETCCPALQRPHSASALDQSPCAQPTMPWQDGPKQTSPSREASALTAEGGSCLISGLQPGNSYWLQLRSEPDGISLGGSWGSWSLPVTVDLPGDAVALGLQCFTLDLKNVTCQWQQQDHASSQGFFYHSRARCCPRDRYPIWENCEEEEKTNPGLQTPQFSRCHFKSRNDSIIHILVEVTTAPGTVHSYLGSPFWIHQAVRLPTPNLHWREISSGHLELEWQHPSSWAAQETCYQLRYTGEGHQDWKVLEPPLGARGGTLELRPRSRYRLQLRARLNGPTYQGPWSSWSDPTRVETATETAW
Nature of the test: Competition binding assay (equilibrium binding ELISA, MBP-TPO156 tracer) on immobilized TPO-R. The settings on record: Table 5; read-out: IC50. On the procedure: A variety of methods can be used to evaluate IC50 values. For example, an equilibrium binding ELISA assay, using either MBP-TPO or lacI-peptide tracer, was used to determine whether the peptides inhibit the binding of TPO to the extracellular domain of the TPO receptor. Typically, the IC50 value were determined using the free peptide. The IC50 value can be determined using the free peptide, which optionally can be C-terminally amidated, or can be prepared as an ester or other carboxy amide.
Binding affinities of chemically synthesized peptides for TPO-R were measured in a competition binding assay. The wells of a microtiter plate were coated with 1 mg streptavidin, blocked with PBS/1% BSA, followed by 50 ng of biotinylated anti-receptor immobilizing antibody (Ab179). The wells were then treated with a 1:10 dilution of soluble TPO-R harvest. Various concentrations of peptide or peptide mimetic were mixed with a constant amount of a truncated form of TPO consisting of residues 1-156 fused to the C-terminus of maltose binding protein (MBP-TPO156). The peptide MBP-TPO156 mixtures were added to the TPO-R coated wells, incubated for 2 hours at 4° C. and then washed with PBS. The amount of MBP-TPO156 that was bound at equilibrium was measured by adding a rabbit anti-sera directed against MBP, followed by alkaline phosphatase conjugated goat anti-rabbit IgG. The amount of alkaline phosphatase in each well was then determined using standard methods.
The assay is conducted over a range of peptide concentrations and the results are graphed such that the y axis represents the amount of bound MBP-TPO156 and the x axis represents the concentration of peptide or peptide mimetic.
A general note: ELISA stands for enzyme-linked immunosorbent assay.

Where [4] appears, read: Table 4, cyclized compounds, read-out: EC50 (nM) Proliferation.

Consider `CCCC1SC[C@@H](C(N)=O)NC(=O)[C@H](Cc2ccccc2)NC(=O)[C@H](CO)NC(=O)[C@H]([C@@H](C)CC)NC(=O)[C@H](Cc2c[nH]c3ccccc23)NC(=O)[C@H](CCC(=O)O)NC(=O)[C@H](CCCNC(=N)N)NC(=O)[C@H](CC(C)C)NC(=O)[C@H]([C@@H](C)O)NC(=O)[C@@H]2CCCN2C(=O)CNC(=O)[C@H](CC(=O)O)NC(=O)[C@H](C)NC1=O` (stereo partly drawn) (HELM PEPTIDE1{A.D.G.P.T.L.R.E.W.I.S.F.C.[am]}|CHEM1{[CCCC(C(=O)[*:1])[*:2]]}$PEPTIDE1,CHEM1,1:R1-1:R1|PEPTIDE1,CHEM1,13:R3-1:R2$$$V2.0), for which the EC50 in test [1] (setting [4]) was less than 500 nM; in test [2], less than 200000 nM.

On to `CC[C@H](C)[C@@H]1NC(=O)[C@H](Cc2c[nH]c3ccccc23)NC(=O)[C@H](CCC(=O)O)NC(=O)[C@H](CCCNC(=N)N)NC(=O)[C@H](CC(C)C)NC(=O)[C@H]([C@@H](C)O)NC(=O)[C@@H]2CCCN2C(=O)CNC(=O)[C@H](CC(=O)O)NC(=O)[C@H](C)NC(=O)[C@@H](N)CCC(=O)NCCCC[C@@H](C(N)=O)NC(=O)[C@H](Cc2ccccc2)NC(=O)[C@H](CO)NC1=O` (HELM PEPTIDE1{E.A.D.G.P.T.L.R.E.W.I.S.F.K.[am]}$PEPTIDE1,PEPTIDE1,1:R3-14:R3$$$V2.0), for which the EC50 in test [1] (setting [4]) and in test [2] was less than 200000 nM each time.

As for `CC[C@H](C)[C@@H]1NC(=O)[C@H](Cc2c[nH]c3ccccc23)NC(=O)[C@H](CCC(=O)O)NC(=O)[C@H](CCCNC(=N)N)NC(=O)[C@H](CC(C)C)NC(=O)[C@H]([C@@H](C)O)NC(=O)[C@@H]2CCCN2C(=O)CNC(=O)[C@H](CC(=O)O)NC(=O)[C@H](C)NC(=O)[C@@H](N)CCCCNC(=O)CC[C@@H](C(N)=O)NC(=O)[C@H](Cc2ccccc2)NC(=O)[C@H](CO)NC1=O` (HELM PEPTIDE1{K.A.D.G.P.T.L.R.E.W.I.S.F.E.[am]}$PEPTIDE1,PEPTIDE1,1:R3-14:R3$$$V2.0), the EC50 in test [1] (setting [4]) and in test [2] was less than 200000 nM throughout.

`CC[C@@H]1NC(=O)[C@H]([C@@H](C)CC)NC(=O)[C@H](Cc2c[nH]c3ccccc23)NC(=O)[C@H](CCC(=O)O)NC(=O)[C@H](CCCNC(=N)N)NC(=O)[C@H](CC(C)C)NC(=O)[C@H]([C@@H](C)O)NC(=O)[C@@H]2CCCN2C(=O)CNC(=O)[C@H](CC(=O)O)NC(=O)[C@H](C)NC(=O)[C@@H](N)CSSC[C@@H](C(N)=O)NC(=O)[C@H](Cc2ccccc2)NC1=O` [S-Abu] (HELM PEPTIDE1{C.A.D.G.P.T.L.R.E.W.I.[Abu].F.C.[am]}$PEPTIDE1,PEPTIDE1,1:R3-14:R3$$$V2.0; N-terminus and C-terminus assumed): the IC50 in test [3] is no more than 0.5 µM. Besides, the EC50 in test [1] (Table 5, substitutions in cyclized compound, read-out: EC50 (nM) Cell Prolif.) is less than 500 nM; in test [1] (Table 6, read-out: EC50 (nM) Cell Prolif.), less than 500 nM.

By IC50 is commonly meant the midpoint of a concentration-inhibition curve.
